3 molecules from patent US6395739B1, “N-phenyl-N′-phenylpopylpiperazine derivatives and process for the preparation” (Zeria Pharmaceutical Co., Ltd., priority 1998, dated 2002) can be followed below.

The test system of assay [1] is α1-adrenoceptor. Briefly: α1-adrenoceptor blocking activity, phenylephrine-induced contraction of rabbit prostate smooth muscle strips. The arrangement: species or system Rabbits. The settings on record: rabbit prostate strip; vs phenylephrine concentration-response curve; test drug 10^-7-10^-5 M for 30 minutes; 10^-5 M propranolol present. As to the method: (§1) <α1-Adrenoceptor Blocking Activity>
(§2) Rabbits were exsanguinated to death, and the prostatic urethra and the prostate were removed and smooth muscle strips were prepared. Each strip was suspended in a 37° C. Krebs-solution-containing organ bath which had been bubbled with 95% O2 and 5% CO2. Isometric contraction under a resting tension of 1 g was recorded by an isometric transducer (by Nihon Koden: TB-651T) on a pen-type recorder (product of Nihon Denki San'ei: RECTI HORIZ 8K).
(§3) After the strips had been equilibrated for 60 minutes, contractions were elicited by use of a certain concentration of phenylephrine (10^−5 M). Subsequently, the organ bath was washed with a physiological solution, and the above procedure was repeated at 60-minute intervals of resting time until constant constriction responses of the strips were obtained. Next, phenylephrine was added cumulatively to organ bath(10^−7-3×10^−4 M), to thereby obtain concentration-response curves (control). After the resting period of 60 minutes following washing of the strip, test samples (DMSO solutions containing the test drug; 10^−7-10^−5 M) were treated for 30 minutes, and concentration-response curves of phenylephrine were obtained.
(§4) The composition of the physiological solution was as follows: NaCl 118.4 mM, KCl 4.7 mM, MgCl2 1.2 mM, CaCl2 2.5 mM, NaHCO3 25.0 mM, glucose […], and KH2PO4 1.2 mM.
(§5) In all cases, 10^−5 M propranolol (β-adrenoceptor antagonist) was added to the physiological solution 10 minutes before test sample was treated with strip.
(§6) The potency of each test drug with regard to the α1-adrenoceptor blocking activity was evaluated on the basis of calculation of pA2 (inverse of the logarithm of the concentration by mole of the antagonist which, in the presence of the antagonist, requires twice the concentration of the agonist for providing the same effect as required in the absence of the antagonist).

Assay [2] concerns α1-adrenoceptor. Put plainly: α1-adrenoceptor blocking activity, phenylephrine-induced contraction of rabbit prostatic urethra smooth muscle strips. The arrangement: species or system Rabbits. The following applies: rabbit prostatic urethra strip; vs phenylephrine concentration-response curve; test drug 10^-7-10^-5 M for 30 minutes; 10^-5 M propranolol present. As to the method:
as §1, §2, §3, §4, §5, §6

Counter-ions that a name gives are not always drawn.

As to `COc1ccccc1N1CCN(CC[C@H](Oc2ccc(C#N)cc2)c2ccc(C)cc2)CC1` [Example 1, (S)-4-[3-[4-(2-methoxyphenyl)piperazin-1-yl]-1-(4-methylphenyl)propoxy]benzonitrile dihydrochloride], the pA2 prostate in assay [1] is 8.00. Besides, in assay [2], the “pA2 Urethra” value was 8.44.
The like results for `COc1ccccc1N1CCN(CC[C@H](Oc2ccc(C(=O)O)cc2)c2ccc(C)cc2)CC1` [Example 2, (S)-4-[3-[4-(2-methoxyphenyl)piperazin-1-yl]-1-(4-methylphenyl)propoxy]benzoic acid] were, in that order, 8.67 and 8.73.
In turn, `COc1ccccc1N1CCN(CC[C@H](Oc2ccc(C(=O)c3c[nH]c4ccccc34)cc2)c2ccc(C)cc2)CC1.Cl` [Example 3, (S)-3-[4-[3-[4-(2-methoxyphenyl)piperazin-1-yl]-1-(4-methylphenyl)propoxy]benzoyl]indole hydrochloride] came in with a pA2 prostate in assay [1] of 6.89. Further, the “pA2 Urethra” value in assay [2] is on record as 6.29.
